Laboratory results published in patent US10968232B2 (Merck Sharp & Dohme Corp., priority 2016, dated 2021).

Target: T1, human GPR40 (Homo sapiens, UniProt O14842)
T1 construct: expressed in transfected cells
Assay: Inositol Phosphate Turnover (IP1) Assay
Assay type: cell-based
Settings: HEK cells stably expressing human GPR40; CisBio IP-One kit; 60 minutes at 37 degrees; read-out: Human IP1 EC50
Outline: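 HEK cells stably expressing GPR40, plated 16 h, then exposed to compound in stimulation buffer for 60 min at 37 °C. IP1 accumulation read by HTRF IP-One detection after 60 min at RT.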

T1 sequence (O14842 whole entry): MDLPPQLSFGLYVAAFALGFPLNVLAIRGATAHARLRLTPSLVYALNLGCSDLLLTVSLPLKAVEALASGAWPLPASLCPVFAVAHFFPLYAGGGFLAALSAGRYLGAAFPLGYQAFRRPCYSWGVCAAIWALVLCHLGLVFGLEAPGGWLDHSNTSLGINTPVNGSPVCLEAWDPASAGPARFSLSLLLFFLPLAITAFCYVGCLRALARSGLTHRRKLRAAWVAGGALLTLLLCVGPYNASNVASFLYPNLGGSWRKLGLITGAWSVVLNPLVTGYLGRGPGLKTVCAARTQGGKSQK

| EC50 | SMILES |
| --- | --- |
| 8.52 nM | C[C@H](C(=O)O)[C@H](c1ccc2c(c1)OC1(CC2)CC2(CN([C@H](C)c3cc(C(F)(F)F)ccc3C(F)(F)F)C2)C1)C1CC1 [Example 126, (2S,3R)-3-cyclopropyl-3-(2,2-(R)-2-(1-(2,5-bis(trifluoromethyl)phenyl)ethyl)-2-azaspiro[3.3]heptane-chroman-7-yl)-2-methylpropanoic Acid] |
| 0.46 nM | C[C@H](C(=O)O)[C@H](c1ccc2c(c1)OC1(CC2)CC2(CN([C@@H](C)c3cc(C(F)(F)F)ccc3C(F)(F)F)C2)C1)C1CC1 [Example 127, (2S,3R)-3-cyclopropyl-3-(2,2-(S)-2-(1-(2,5-bis(trifluoromethyl)phen-yl)ethyl)-2-azaspiro[3.3]-heptane-chroman-7-yl)-2-methylpropanoic acid] |
| 3.8 nM | C[C@H](C(=O)O)[C@H](c1ccc2c(c1)OC1(CC2)CCN(Cc2cc(C(F)(F)F)ccc2C(F)(F)F)CC1)C1CC1 [Example 129, Sodium (2S,3R)-3-(1′-(2,5-bis(trifluoromethyl)benzyl)spiro[chromane-2,4′-piperidin]-7-yl)-3-cyclopropyl-2-methylpropanoate] |
| 3.1 nM | C[C@H](C(=O)O)[C@H](c1ccc2c(c1)OC1(CC2)CCN([C@H](C)c2cc(C(F)(F)F)ccc2C(F)(F)F)CC1)C1CC1 [Example 130, Sodium (2S,3R)-3-(1′-((R)-1-(2,5-Bis(trifluoromethyl)phenyl)ethyl)spiro[chromane-2,4′-piperidin]-7-yl)-3-cyclopropyl-2-methylpropanoate] |
| > 1000 nM | C[C@H](C(=O)O)[C@H](c1ccc2c(c1)OC1(CC2)CCN([C@@H](C)c2cc(C(F)(F)F)ccc2C(F)(F)F)CC1)C1CC1 [Example 131, Sodium (2S,3R)-3-(1′-((S)-1-(2,5-bis(trifluoromethyl)phenyl)ethyl)spiro[chromane-2,4′-piperidin]-7-yl)-3-cyclopropyl-2-methylpropanoate] |

The next lines start with the compound.

| SMILES | EC50 |
| --- | --- |
| C[C@H](C(=O)O)[C@H](c1ccc2c(c1)OC1(CC2)CCN(Cc2cc(C#N)ccc2OC(F)(F)F)CC1)C1CC1 [Example 124, (2S,3R)-3-(1′-(5-cyano-2-(trifluoro-methoxy)-benzyl)spiro[chroman-2,4′-piperidin]-7-yl)-3-cyclopropyl-2-methylpropanoic acid] | 64.1 nM |
| C[C@H](C(=O)O)[C@H](c1ccc2c(c1)OC1(CC2)CCN([C@@H](C)c2cc(F)ccc2OC(F)(F)F)CC1)C1CC1 [Example 132, Sodium (2S,3R)-3-cyclopropyl-3-(1′-((S)-1-(5-fluoro-2-(trifluoromethoxy)phenyl)ethyl)spiro[chromane-2,4′-piperidin]-7-yl)-2-methylpropanoate] | 11.2 nM |
| CC(c1cc(Cl)ccc1OC(F)(F)F)N1CCC2(CCc3ccc([C@H](C4CC4)[C@H](C)C(=O)O)cc3O2)CC1 (stereo partly drawn) [Example 133, Sodium (2S,3R)-3-(1′-(1-(5-chloro-2-(trifluoromethoxy)phenyl)ethyl)spiro[chromane-2,4′-piperidin]-7-yl)-3-cyclopropyl-2-methylpropanoate] | 3.3 nM |
| CC(c1cc(Cl)ccc1OC(F)(F)F)N1CCC2(CCc3ccc([C@H](C4CC4)[C@H](C)C(=O)O)cc3O2)CC1 (stereo partly drawn) [Example 134, Sodium (2S,3R)-3-(1′-(1-(5-chloro-2-(trifluoromethoxy)phenyl)ethyl)spiro[chromane-2,4′-piperidin]-7-yl)-3-cyclopropyl-2-methylpropanoate] | 1.4 nM |
